Test results as given in patent US20150126467A1, “USE OF ALGINATE OLIGOMERS TO ENHANCE THE EFFECTS OF ANTIFUNGAL AGENTS” (AlgiIPharma AS, priority 2011, published 2015).

Columns and labels:
[1] = system: Cryptococcus neoformans CCUG 23451; test: Robotic MIC assay, Cryptococcus neoformans (Example 6); assay type: cell-based
Description: Cryptococcus sp. was grown at 30° C. for 96 h on YM-agar. Spores and aerial mycelium was cut out from the agar, suspended in 1 ml YM-broth and dispersed with glass beads (1 mm) in a mini bead beater for 2 min. The suspension was added glycerol to 10% and frozen at −80° C. Each batch of frozen stock culture was then characterized in separate growth experiments using Mueller-Hinton and RPMI to determine the minimum amount of inoculum giving satisfactory growth after 48 h under the conditions relevant for the MIC assay. This inoculum procedure is used in order to reduce day to day variation in bioassays.
Robotic minimum inhibitory concentration (MIC) assay was performed as follows. OligoG CF-5/20 was dissolved in medium (Mueller-Hinton, RPMI with 2% glucose, Sabouraud or YM) to 1.25 times of the desired assay concentrations (2, 6 and 10%). […].
(§1) Two-fold serial dilutions of antifungal agents were made in medium with different concentrations of OligoG CF-5/20, and the solutions were placed in four parallel wells in Nunc 384-well micro plates (30 μl per well in Nunc 242757 microplates). A group of 8 wells with no addition of antifungal agents for each OligoG CF-5/20 concentration was included on each micro plate as growth reference. Each well in the 384-well assay plates was added 7.5 μl of the medium innoculated with frozen stock culture of the relevant strains.
The microplates were placed in plastic bags and incubated without shaking at 34° C. The optical density at 600 nm in the microwells was measured after certain time points from 24 h to 96 h of incubation. […]

[2] = system: C. parapsillosis ATCC 22019T; test: Robotic MIC assay, Candida strains (Example 2); assay type: cell-based, Candida parapsilosis; conditions: 48 h, Mueller-Hinton broth
Description: A robotic MIC Assay was performed as follows. OligoG CF-5/20 were dissolved in medium (Mueller-Hinton broth or M19 broth depending on experiment) to 1.25 times of the desired assay concentrations (2, 6 and 10%). The antifungal agents under test were dissolved in medium without OligoG CF-5/20 and in medium with OligoG CF-5/20 at a concentration of 1.25 times the highest desired assay concentrations. For experiments where the effect of adding different concentrations of Na^+ was investigated, NaCl was dissolved in medium to the desired concentrations (10, 30 and 50 mM).
Two-fold serial dilutions of antifungal agents were made in medium with different concentrations of OligoG CF-5/20, and the solutions were placed in four parallel wells in Nunc 384-well micro plates (30 μl per well in Nunc 242757 microplates). A group of 8 wells with no addition of antifungal agents for each OligoG CF-5/20 concentration was included on each microplate as growth reference. To each well in the 384-well assay plates was added 7.5 μl of medium inoculated with a frozen stock culture of Candida albicans (strain CCUG 39343).
The micro plates were placed in plastic bags and incubated without shaking at 34° C. The optical density at 600 nm in the microwells was measured after approximately 13, 18, 24 and 34 hours of incubation, and the relative growth yield in each well was calculated based on the growth in the reference groups.
The robotic assay described in Example 1 was employed in this Example. Strains were grown in Mueller-Hinton broth (LAB114 from Lab M Limited) and MIC values (μg ml-1) were determined for each antifungal after incubation for 48 h in the presence of 0, 2, 6 and 10% OligoG CF-5/20 G-fragments. […] OligoG CF-5/20 G-fragments were provided by AlgiPharma AS, Norway.
Candida strains used were as follows: • C. albicans CCUG 39343 (strain from culture collection) • C. parapsillosis ATCC 22019T (strain from culture collection) • C. krusei 141/03 (candidosis) • C. krusei 249/03(2) (ulceration) • C. lusitaniae 994/01(2) (candidosis) • C. tropicalis 12 (vaginal) • C. tropicalis 75 (vaginal) • C. tropicalis 519468 (urinary) • C. tropicalis 544123 (urinary) • C. tropicalis 250/03 (candidosis) • C. tropicalis AG1 (oral) • C. tropicalis T2.2 (oral)

[3] = system: Aspergillus fumigatus CCUG 17460; test: Robotic MIC assay, Aspergillus (Example 4); assay type: cell-based; conditions: A. fumigatus CCUG 17460, 48 hours, Mueller-Hinton broth
Description: (§2) Aspergillus sp. was grown at 30° C. for 96 h on YM-agar. Spores and aerial mycelium was cut out from the agar, suspended in 1 ml YM-broth and dispersed with glass beads (1 mm) in a mini bead beater for 2 min. Glycerol was added to the suspension to 10% and frozen at −80° C.
(§3) Each batch of frozen stock culture was then characterized in separate growth experiments using Mueller-Hinton broth to determine the minimum amount of inoculum giving satisfactory growth after 48 h under the conditions relevant for the MIC assay. This inoculation procedure is used in order to reduce day to day variation in bioassays.
(§4) Robotic minimum inhibitory concentration (MIC) assay was performed as follows. OligoG CF-5/20 was dissolved in medium (Mueller-Hinton broth) to 1.25 times of the desired assay concentrations (2, 6 and 10%). […].
as §1, with “of the MH medium inoculated” for “of the medium innoculated”, “MH medium inoculated with frozen” for “the medium innoculated with frozen”
(§5) The microplates were placed in plastic bags and incubated without shaking at 34° C. The optical density at 600 nm in the microwells was measured after approximately 24 and 48 hours of incubation. […]

[4] = system: Aspergillus flavus CCUG 28296; test: Robotic MIC assay, Aspergillus (Example 4); assay type: cell-based; conditions: A. flavus CCUG 23451, 48 hours, Mueller-Hinton broth
Description: as §2, §3, §4
as §1, with “of the MH medium inoculated” for “of the medium innoculated”, “MH medium inoculated with frozen” for “the medium innoculated with frozen”
as §5

## C[C@@H]1[C@H](O)[C@@H](C)/C=C/C=C/CC/C=C/C=C/C=C/C=C/C(O[C@H]2O[C@H](C)[C@@H](O)[C@H](N)[C@@H]2O)CC2O[C@](O)(CC(O)C(O)CCC(O)CC(O)CC(O)CC(=O)O[C@H]1C)CC(O)C2C(=O)O (stereo partly shown) [Nystatin, nystatin]
[1]; MH, 0% OligoG, 96 hours
  Minimum Inhibitory Concentration (MIC): 4 µg/mL
[1]; MH, 2% OligoG, 96 hours
  Minimum Inhibitory Concentration (MIC): 1 µg/mL
[1]; RPMI 2% GLU, 0% OligoG, 72 hours
  Minimum Inhibitory Concentration (MIC): 8 µg/mL
[1]; RPMI 2% GLU, 0% OligoG, 96 hours
  Minimum Inhibitory Concentration (MIC): 8 µg/mL
[1]; RPMI 2% GLU, 2% OligoG, 72 hours
  Minimum Inhibitory Concentration (MIC): 8 µg/mL
[1]; RPMI 2% GLU, 2% OligoG, 96 hours
  Minimum Inhibitory Concentration (MIC): 8 µg/mL
[1]; RPMI 2% GLU, 6% OligoG, 72 hours
  Minimum Inhibitory Concentration (MIC): 4 µg/mL
[1]; RPMI 2% GLU, 6% OligoG, 96 hours
  Minimum Inhibitory Concentration (MIC): 8 µg/mL
[1]; Sabouraud, 0% OligoG, 72 hours
  Minimum Inhibitory Concentration (MIC): 2 µg/mL
[1]; Sabouraud, 0% OligoG, 96 hours
  Minimum Inhibitory Concentration (MIC): 2 µg/mL
[1]; Sabouraud, 2% OligoG, 72 hours
  Minimum Inhibitory Concentration (MIC): 0.5 µg/mL
[1]; Sabouraud, 2% OligoG, 96 hours
  Minimum Inhibitory Concentration (MIC): 0.5 µg/mL
[1]; Sabouraud, 6% OligoG, 72 hours
  Minimum Inhibitory Concentration (MIC): 0.25 µg/mL
[1]; Sabouraud, 6% OligoG, 96 hours
  Minimum Inhibitory Concentration (MIC): 0.25 µg/mL
[1]; YM, 0% OligoG, 72 hours
  Minimum Inhibitory Concentration (MIC): 8 µg/mL
[1]; YM, 0% OligoG, 96 hours
  Minimum Inhibitory Concentration (MIC): 16 µg/mL
[1]; YM, 2% OligoG, 72 hours
  Minimum Inhibitory Concentration (MIC): 4 µg/mL
[1]; YM, 2% OligoG, 96 hours
  Minimum Inhibitory Concentration (MIC): 8 µg/mL
[1]; media: RPMI with 2% glucose, MH, Sabouraud, YM
  effect on MIC when OligoG is added to the medium: reduction in MIC in all media tested
[2]; 0% OligoG
  Minimum Inhibitory Concentration (MIC): 4 µg/mL
[2]; 2% OligoG
  Minimum Inhibitory Concentration (MIC): 2 µg/mL
[2]; 6% OligoG
  Minimum Inhibitory Concentration (MIC): 1 µg/mL
[2]; 10% OligoG
  Minimum Inhibitory Concentration (MIC): 0.5 µg/mL
[3]; 0% OligoG
  Minimum Inhibitory Concentration (MIC): 8 µg/mL
[3]; 2% OligoG
  Minimum Inhibitory Concentration (MIC): 8 µg/mL
[3]; 6% OligoG
  Minimum Inhibitory Concentration (MIC): 4 µg/mL
[3]; 10% OligoG
  Minimum Inhibitory Concentration (MIC): 2 µg/mL
[4]; 0% OligoG
  Minimum Inhibitory Concentration (MIC): 8 µg/mL
[4]; 2% OligoG
  Minimum Inhibitory Concentration (MIC): 8 µg/mL
[4]; 6% OligoG
  Minimum Inhibitory Concentration (MIC): 4 µg/mL
[4]; 10% OligoG
  Minimum Inhibitory Concentration (MIC): 2 µg/mL
